Data as given in ChEMBL document CHEMBL5291721, “A preclinical secondary pharmacology resource illuminates target-adverse drug reaction associations of marketed drugs” (Nat Commun, 2023).

What was measured:
[1] = molecular target: T1, Muscarinic acetylcholine receptor M2 (Homo sapiens, UniProt P08172)
T1 sequence (P08172 whole entry): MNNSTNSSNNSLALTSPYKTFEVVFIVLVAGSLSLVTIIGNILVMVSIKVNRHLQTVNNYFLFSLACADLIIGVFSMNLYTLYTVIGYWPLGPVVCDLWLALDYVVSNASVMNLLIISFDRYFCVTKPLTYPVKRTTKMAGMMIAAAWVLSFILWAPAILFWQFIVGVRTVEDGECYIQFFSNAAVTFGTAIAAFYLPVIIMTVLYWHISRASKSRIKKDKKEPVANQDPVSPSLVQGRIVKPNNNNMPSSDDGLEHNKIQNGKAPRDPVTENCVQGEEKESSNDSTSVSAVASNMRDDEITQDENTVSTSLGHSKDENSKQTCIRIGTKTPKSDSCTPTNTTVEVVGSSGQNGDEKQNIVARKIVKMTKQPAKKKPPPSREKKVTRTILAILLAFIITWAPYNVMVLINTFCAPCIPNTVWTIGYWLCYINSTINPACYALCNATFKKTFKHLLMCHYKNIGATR

[2] = molecular target: T2, Alpha-2A adrenergic receptor (Homo sapiens, UniProt P08913)
T2 sequence (P08913 whole entry): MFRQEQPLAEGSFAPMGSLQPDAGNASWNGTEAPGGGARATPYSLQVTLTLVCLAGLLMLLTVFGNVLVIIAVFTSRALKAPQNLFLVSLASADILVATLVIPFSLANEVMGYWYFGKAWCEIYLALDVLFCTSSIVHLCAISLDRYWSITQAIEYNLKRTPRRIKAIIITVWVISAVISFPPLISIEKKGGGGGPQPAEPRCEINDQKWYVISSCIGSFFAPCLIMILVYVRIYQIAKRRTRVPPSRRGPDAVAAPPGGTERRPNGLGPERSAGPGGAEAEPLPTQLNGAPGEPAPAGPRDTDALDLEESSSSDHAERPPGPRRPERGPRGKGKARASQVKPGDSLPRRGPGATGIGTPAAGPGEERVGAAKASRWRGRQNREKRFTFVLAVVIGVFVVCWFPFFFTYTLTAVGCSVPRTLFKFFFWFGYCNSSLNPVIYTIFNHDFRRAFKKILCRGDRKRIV

[3] = molecular target: Gamma-aminobutyric acid receptor subunit alpha-1/alpha-2/beta-2/gamma-2 (Homo sapiens, UniProt P14867+P18507+P47869+P47870); type: functional, cell-based
[4] = molecular target: T3, Corticotropin-releasing factor receptor 1 (Homo sapiens, UniProt P34998)
T3 sequence (P34998 whole entry): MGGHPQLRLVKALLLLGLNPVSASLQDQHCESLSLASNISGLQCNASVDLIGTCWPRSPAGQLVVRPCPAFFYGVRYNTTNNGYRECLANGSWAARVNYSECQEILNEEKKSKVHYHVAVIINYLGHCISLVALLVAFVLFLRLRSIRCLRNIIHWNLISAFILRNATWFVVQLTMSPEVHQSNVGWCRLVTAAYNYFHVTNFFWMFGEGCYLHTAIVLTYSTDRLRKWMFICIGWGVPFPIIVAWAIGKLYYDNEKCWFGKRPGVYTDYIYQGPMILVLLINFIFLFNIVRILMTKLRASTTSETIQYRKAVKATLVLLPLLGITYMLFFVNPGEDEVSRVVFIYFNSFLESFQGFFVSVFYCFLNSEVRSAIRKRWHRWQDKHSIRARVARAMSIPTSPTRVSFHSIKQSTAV

[5] = molecular target: Voltage-dependent N-type calcium channel subunit alpha-1B (Rattus norvegicus, UniProt Q02294); type: functional
B1 bradykinin receptor = molecular target: T4, B1 bradykinin receptor (Homo sapiens, UniProt P46663)
T4 sequence (P46663 whole entry): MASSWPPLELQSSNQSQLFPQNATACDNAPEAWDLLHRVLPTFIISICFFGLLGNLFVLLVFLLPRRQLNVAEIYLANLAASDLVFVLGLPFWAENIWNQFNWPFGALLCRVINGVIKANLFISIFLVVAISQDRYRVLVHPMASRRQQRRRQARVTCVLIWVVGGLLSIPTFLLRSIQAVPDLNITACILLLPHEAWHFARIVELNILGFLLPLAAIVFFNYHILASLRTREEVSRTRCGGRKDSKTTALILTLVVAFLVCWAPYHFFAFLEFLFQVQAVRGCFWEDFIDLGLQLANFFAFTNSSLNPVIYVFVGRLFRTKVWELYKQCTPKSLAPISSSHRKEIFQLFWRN

Histamine H1 receptor = Histamine H1 receptor (Homo sapiens, UniProt P35367); type: functional, cell-based
Estrogen receptor beta = Estrogen receptor beta (Homo sapiens, UniProt Q92731)
D(4) dopamine receptor = molecular target: T5, D(4) dopamine receptor (Homo sapiens, UniProt P21917)
T5 sequence (P21917 whole entry): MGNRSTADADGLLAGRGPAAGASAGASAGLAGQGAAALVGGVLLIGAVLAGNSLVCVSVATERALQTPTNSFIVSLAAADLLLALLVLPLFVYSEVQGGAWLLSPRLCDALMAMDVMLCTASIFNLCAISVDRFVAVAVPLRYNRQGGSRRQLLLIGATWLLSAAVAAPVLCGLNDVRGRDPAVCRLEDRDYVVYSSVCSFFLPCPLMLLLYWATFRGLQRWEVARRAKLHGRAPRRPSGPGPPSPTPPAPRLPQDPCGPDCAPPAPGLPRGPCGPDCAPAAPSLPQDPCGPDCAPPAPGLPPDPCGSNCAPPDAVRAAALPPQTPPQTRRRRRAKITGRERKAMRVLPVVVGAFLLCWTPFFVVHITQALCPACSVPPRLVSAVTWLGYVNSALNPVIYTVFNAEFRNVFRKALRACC

Substance-P receptor = Substance-P receptor (Homo sapiens, UniProt P25103)
[6] = molecular target: T6, Alpha-1A adrenergic receptor (Homo sapiens, UniProt P35348)
T6 sequence (P35348 whole entry): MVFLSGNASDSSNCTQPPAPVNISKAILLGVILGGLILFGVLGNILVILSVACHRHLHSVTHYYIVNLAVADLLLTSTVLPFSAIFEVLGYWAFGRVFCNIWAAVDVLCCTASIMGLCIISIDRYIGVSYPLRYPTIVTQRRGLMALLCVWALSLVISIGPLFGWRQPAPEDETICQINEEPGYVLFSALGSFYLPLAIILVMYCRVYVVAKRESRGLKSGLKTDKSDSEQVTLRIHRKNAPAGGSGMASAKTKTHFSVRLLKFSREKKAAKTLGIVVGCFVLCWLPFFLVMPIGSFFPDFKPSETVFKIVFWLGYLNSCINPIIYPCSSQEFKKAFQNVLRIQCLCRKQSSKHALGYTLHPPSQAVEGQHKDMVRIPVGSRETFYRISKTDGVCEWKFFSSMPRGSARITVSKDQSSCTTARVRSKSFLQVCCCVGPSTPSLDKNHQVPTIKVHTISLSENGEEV
Note: assay procedure not described here.

Gamma-aminobutyric acid receptor subunit alpha-1/alpha-2/beta-2/gamma-2, sequence (P14867 whole entry): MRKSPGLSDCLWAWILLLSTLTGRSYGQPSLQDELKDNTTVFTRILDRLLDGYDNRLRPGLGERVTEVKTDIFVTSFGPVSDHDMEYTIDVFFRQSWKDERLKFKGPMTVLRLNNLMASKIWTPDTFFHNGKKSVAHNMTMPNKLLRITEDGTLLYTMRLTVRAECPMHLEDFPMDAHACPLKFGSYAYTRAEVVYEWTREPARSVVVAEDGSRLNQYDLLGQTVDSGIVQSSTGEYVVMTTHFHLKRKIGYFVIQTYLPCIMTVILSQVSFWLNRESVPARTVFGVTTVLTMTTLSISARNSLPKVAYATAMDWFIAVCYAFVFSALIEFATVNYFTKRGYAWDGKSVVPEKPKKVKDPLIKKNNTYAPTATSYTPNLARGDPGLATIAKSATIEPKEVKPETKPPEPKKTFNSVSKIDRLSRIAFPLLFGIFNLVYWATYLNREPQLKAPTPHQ
Gamma-aminobutyric acid receptor subunit alpha-1/alpha-2/beta-2/gamma-2, sequence (P47870 whole entry): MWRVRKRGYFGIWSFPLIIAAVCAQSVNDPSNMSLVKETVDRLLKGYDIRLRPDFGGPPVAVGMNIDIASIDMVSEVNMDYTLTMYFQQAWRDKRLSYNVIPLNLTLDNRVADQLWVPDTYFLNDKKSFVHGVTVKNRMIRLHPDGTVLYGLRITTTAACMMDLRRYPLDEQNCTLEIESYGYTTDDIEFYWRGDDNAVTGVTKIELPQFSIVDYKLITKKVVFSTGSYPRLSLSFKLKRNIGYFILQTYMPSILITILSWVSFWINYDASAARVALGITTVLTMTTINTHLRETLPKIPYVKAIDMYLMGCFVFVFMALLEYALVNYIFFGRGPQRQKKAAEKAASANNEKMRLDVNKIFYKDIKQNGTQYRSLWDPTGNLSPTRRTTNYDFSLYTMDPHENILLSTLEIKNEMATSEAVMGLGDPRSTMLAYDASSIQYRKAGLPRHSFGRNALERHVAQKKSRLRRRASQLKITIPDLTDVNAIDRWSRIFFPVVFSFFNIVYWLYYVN
Gamma-aminobutyric acid receptor subunit alpha-1/alpha-2/beta-2/gamma-2, sequence (P18507 whole entry): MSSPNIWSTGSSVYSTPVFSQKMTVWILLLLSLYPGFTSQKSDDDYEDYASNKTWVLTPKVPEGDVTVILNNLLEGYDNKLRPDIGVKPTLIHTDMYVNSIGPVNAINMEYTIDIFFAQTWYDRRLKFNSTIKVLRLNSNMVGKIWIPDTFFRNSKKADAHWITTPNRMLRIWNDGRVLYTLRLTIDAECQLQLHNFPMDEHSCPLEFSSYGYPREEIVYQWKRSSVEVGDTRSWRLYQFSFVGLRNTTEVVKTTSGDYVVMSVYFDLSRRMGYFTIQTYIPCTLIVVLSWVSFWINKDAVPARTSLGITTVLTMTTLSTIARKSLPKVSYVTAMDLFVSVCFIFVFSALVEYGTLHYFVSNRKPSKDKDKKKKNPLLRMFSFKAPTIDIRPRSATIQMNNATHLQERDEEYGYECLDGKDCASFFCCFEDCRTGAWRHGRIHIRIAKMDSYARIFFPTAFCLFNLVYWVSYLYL
Gamma-aminobutyric acid receptor subunit alpha-1/alpha-2/beta-2/gamma-2, sequence (P47869 whole entry): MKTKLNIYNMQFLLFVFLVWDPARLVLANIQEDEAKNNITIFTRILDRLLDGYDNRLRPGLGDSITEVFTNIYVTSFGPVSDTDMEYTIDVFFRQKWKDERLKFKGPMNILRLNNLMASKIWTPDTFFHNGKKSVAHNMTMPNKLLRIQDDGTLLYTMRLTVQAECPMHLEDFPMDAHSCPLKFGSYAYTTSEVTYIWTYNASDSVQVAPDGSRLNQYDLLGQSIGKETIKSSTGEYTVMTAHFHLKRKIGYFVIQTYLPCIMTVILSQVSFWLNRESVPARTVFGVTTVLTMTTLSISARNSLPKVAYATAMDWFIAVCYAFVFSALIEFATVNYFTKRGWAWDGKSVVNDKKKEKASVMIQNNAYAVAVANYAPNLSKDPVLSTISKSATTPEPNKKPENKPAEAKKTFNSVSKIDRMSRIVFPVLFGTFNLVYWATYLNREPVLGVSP
Histamine H1 receptor, sequence (P35367 whole entry): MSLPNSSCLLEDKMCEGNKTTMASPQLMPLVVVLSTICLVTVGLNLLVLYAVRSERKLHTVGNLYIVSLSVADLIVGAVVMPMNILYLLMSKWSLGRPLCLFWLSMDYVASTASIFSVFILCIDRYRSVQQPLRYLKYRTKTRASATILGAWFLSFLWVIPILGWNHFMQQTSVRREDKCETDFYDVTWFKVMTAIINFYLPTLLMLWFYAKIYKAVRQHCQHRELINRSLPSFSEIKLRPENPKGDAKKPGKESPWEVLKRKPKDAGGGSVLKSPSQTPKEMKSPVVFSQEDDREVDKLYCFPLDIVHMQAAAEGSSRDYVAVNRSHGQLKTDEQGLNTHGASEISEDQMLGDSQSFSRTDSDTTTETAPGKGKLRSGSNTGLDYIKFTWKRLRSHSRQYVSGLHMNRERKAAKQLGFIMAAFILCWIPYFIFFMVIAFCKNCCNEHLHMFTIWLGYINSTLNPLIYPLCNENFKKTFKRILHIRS
Substance-P receptor, sequence (P25103 whole entry): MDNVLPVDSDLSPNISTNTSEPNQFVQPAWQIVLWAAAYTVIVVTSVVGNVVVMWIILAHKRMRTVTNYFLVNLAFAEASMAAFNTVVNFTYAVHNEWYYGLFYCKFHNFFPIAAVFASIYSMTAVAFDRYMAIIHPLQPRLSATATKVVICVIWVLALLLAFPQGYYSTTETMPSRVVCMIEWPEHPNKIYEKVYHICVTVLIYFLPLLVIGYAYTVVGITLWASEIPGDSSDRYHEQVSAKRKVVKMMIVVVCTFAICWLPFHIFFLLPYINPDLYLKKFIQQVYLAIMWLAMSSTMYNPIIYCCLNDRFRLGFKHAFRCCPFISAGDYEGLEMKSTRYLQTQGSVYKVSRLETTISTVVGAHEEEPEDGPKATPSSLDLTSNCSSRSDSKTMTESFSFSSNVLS
Estrogen receptor beta, sequence (Q92731 whole entry): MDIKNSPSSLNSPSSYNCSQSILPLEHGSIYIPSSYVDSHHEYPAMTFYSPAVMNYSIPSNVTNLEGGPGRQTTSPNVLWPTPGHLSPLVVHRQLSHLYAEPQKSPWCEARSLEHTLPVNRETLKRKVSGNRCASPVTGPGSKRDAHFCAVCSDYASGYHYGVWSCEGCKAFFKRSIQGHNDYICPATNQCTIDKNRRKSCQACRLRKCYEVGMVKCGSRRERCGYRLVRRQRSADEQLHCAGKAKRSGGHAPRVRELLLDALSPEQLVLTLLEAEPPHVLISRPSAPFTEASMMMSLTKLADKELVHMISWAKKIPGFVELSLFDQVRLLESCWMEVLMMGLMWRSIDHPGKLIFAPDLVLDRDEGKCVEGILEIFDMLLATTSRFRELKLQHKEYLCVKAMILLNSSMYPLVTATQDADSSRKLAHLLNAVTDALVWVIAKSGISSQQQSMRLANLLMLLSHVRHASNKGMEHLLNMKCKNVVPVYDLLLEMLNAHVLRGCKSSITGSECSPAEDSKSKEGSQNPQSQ

C[N+]12CCC(CC1)C(OC(=O)C(O)(c1ccccc1)c1ccccc1)C2 (configuration not stated)
AC50 [1]: 0.0032 µM

Cc1cc(=O)n(-c2ccccc2)n1C [ANTIPYRINE]
AC50 [2]: > 10 µM

NS(=O)(=O)c1cc2c(cc1Cl)N=C(CSCc1ccccc1)NS2(=O)=O [BENZTHIAZIDE]
AC50 [2]: 2.48 µM

CO/N=C(\C(=O)N[C@@H]1C(=O)N2C(C(=O)O)=C(CSc3nc(=O)c(=O)[nH]n3C)CS[C@H]12)c1csc(N)n1 [CEFTRIAXONE]
AC50 [3]: > 30 µM

COc1cc(N)c(Cl)cc1C(=O)NC1CCN(CCCOc2ccc(F)cc2)CC1OC (configuration not stated) [CISAPRIDE]
AC50 [4]: > 30 µM
AC50 [1]: > 10 µM
AC50 [5]: > 10 µM
AC50 (B1 bradykinin receptor): > 30 µM

CC(CN(C)C)C(C)(O)Cc1ccc(Cl)cc1 (configuration not stated) [CLOBUTINOL]
AC50 (Histamine H1 receptor): > 30 µM

CCOC(=O)C(C)(C)Oc1ccc(Cl)cc1 [CLOFIBRATE]
AC50 [4]: > 30 µM
AC50 (Estrogen receptor beta): > 30 µM
AC50 [1]: > 10 µM
AC50 [5]: > 10 µM
AC50 (B1 bradykinin receptor): > 30 µM

CCCCOc1ccc(C(=O)CCN2CCCCC2)cc1 [DYCLONINE]
AC50 [4]: > 30 µM
AC50 (Estrogen receptor beta): > 30 µM
AC50 (D(4) dopamine receptor): 4.11 µM
AC50 [1]: 2.81 µM
AC50 (Histamine H1 receptor): > 30 µM
AC50 [5]: > 10 µM
AC50 (B1 bradykinin receptor): > 30 µM
AC50 (Substance-P receptor): > 10 µM
AC50 [2]: > 10 µM
AC50 [6]: > 10 µM

CC(C)NC[C@H](O)COc1ccc(CC(N)=O)cc1 [ESATENOLOL]
AC50 [4]: > 30 µM
AC50 (D(4) dopamine receptor): > 10 µM
AC50 [5]: > 10 µM
AC50 (B1 bradykinin receptor): > 30 µM
AC50 (Substance-P receptor): > 10 µM
AC50 [2]: > 10 µM
AC50 [6]: > 10 µM

NNC(=O)c1ccncc1 [ISONIAZID]
AC50 [4]: > 30 µM
AC50 (Estrogen receptor beta): > 30 µM
AC50 (D(4) dopamine receptor): > 10 µM
AC50 [5]: > 10 µM
AC50 (B1 bradykinin receptor): > 30 µM
AC50 (Substance-P receptor): > 10 µM
AC50 [2]: > 10 µM
AC50 [6]: > 10 µM

O=C1Nc2ccc(Cl)cc2C(c2ccccc2Cl)=NC1O (configuration not stated) [LORAZEPAM]
AC50 [4]: > 30 µM
AC50 (Estrogen receptor beta): > 30 µM
AC50 (D(4) dopamine receptor): > 10 µM
AC50 [1]: > 10 µM
AC50 [5]: > 10 µM
AC50 (B1 bradykinin receptor): > 30 µM
AC50 (Substance-P receptor): > 10 µM
AC50 [2]: > 10 µM
AC50 [6]: > 10 µM

Cc1ccnc2c1NC(=O)c1cccnc1N2C1CC1 [NEVIRAPINE]
AC50 [4]: > 30 µM
AC50 (Estrogen receptor beta): > 30 µM
AC50 (D(4) dopamine receptor): > 10 µM
AC50 [1]: > 10 µM
AC50 [5]: > 10 µM
AC50 (B1 bradykinin receptor): > 30 µM
AC50 (Substance-P receptor): > 10 µM
AC50 [2]: > 10 µM
AC50 [6]: > 10 µM

O=C(NCCO[N+](=O)[O-])c1cccnc1 [NICORANDIL]
AC50 (Histamine H1 receptor): > 30 µM
AC50 [3]: > 30 µM

CO[C@H]1C[C@H](O[C@H]2CC[C@@]3(C)[C@H](CC[C@@H]4[C@@H]3CC[C@]3(C)[C@@H](C5=CC(=O)OC5)[C@@H](OC(C)=O)C[C@]43O)C2)O[C@@H](C)[C@@H]1O [OLEANDRIN]
AC50 [3]: > 30 µM

O=c1[nH]c2ccccc2n1CCCN1CCN(C(c2ccccc2)c2ccccc2)CC1 [OXATOMIDE]
AC50 (Histamine H1 receptor): 0.69 µM
AC50 [3]: > 30 µM

COc1cc2[nH]c(C)c(CCN3CCN(c4ccccc4)CC3)c2cc1OC [OXYPERTINE]
AC50 (Histamine H1 receptor): 0.645 µM
AC50 [3]: > 30 µM

Fc1ccc([C@@H]2CCNC[C@H]2COc2ccc3c(c2)OCO3)cc1 [PAROXETINE]
AC50 [4]: > 30 µM
AC50 (D(4) dopamine receptor): > 10 µM
AC50 [5]: > 10 µM
AC50 (B1 bradykinin receptor): > 30 µM

c1ccc(C2(N3CCCCC3)CCCCC2)cc1 [PHENCYCLIDINE]
AC50 [3]: > 30 µM

COc1cc(C(=O)OCc2cccc(COC(=O)c3cc(OC)c(OC)c(OC)c3)n2)cc(OC)c1OC [PIROZADIL]
AC50 (Histamine H1 receptor): > 30 µM
AC50 [3]: > 30 µM

CCC(=O)O[C@](Cc1ccccc1)(c1ccccc1)[C@H](C)CN(C)C [PROPOXYPHENE]
AC50 [4]: > 30 µM
AC50 (Estrogen receptor beta): > 30 µM
AC50 (D(4) dopamine receptor): > 10 µM
AC50 [1]: > 10 µM
AC50 [5]: > 10 µM
AC50 (B1 bradykinin receptor): > 30 µM
AC50 (Substance-P receptor): > 10 µM
AC50 [2]: > 10 µM
AC50 [6]: > 10 µM

CCc1nc(N)nc(N)c1-c1ccc(Cl)cc1 [PYRIMETHAMINE]
AC50 [2]: > 10 µM

O=c1c(O)c(-c2ccc(O)c(O)c2)oc2cc(O)cc(O)c12 [QUERCETIN]
AC50 [4]: > 30 µM
AC50 (Estrogen receptor beta): > 30 µM
AC50 [1]: > 10 µM
AC50 [5]: > 10 µM
AC50 (B1 bradykinin receptor): > 30 µM
AC50 [2]: > 10 µM

CCN1CCCC1CNC(=O)c1cc(S(=O)(=O)CC)ccc1OC (configuration not stated) [SULTOPRIDE]
AC50 (Histamine H1 receptor): > 30 µM
AC50 [3]: > 30 µM

C=CCN1CCc2nc(N)sc2CC1 [TALIPEXOLE]
AC50 [2]: 0.98 µM

CCOC(=O)c1ccc(C#Cc2ccc3c(c2)C(C)(C)CCS3)nc1 [TAZAROTENE]
AC50 [5]: > 10 µM

CCOC(=O)[C@@H](N)Cc1ccc(-c2cc(O[C@H](c3ccc(Cl)cc3-n3ccc(C)n3)C(F)(F)F)nc(N)n2)cc1 [TELOTRISTAT ETHYL]
AC50 [3]: > 30 µM
